From US20110020517A1, “TASTE MODIFYING PRODUCT” (priority 2008, published 2011)

Key:
[1] = prior art, U.S. Pat. No. 5,298,486 column 2 lines 24 to 33; cited from earlier work
[2] = Evaluation for umami/kokumi taste and mouthfeel by a team of 8 trained panelists, in 0.3% aqueous NaCl solution; settings: 10 ppm in 0.3% aqueous NaCl solution
Procedure: Liquid 2-(3-phenylpropyl)pyridine was obtained from R.C. Treatt & Co Ltd, UK (reference SA362100/2). It was then diluted into propylene glycol solvent to provide a 10% solution of the 2-(3-phenylpropyl)pyridine, the resulting solution then being added to a 0.3% aqueous NaCl solution to provide a concentration of 2-(3-phenylpropyl)pyridine of 10 ppm.
The sample was evaluated for umami/kokumi taste and mouthfeel by a team of 8 trained panelists.

## CCCCCCc1cccnc1 [3-hexylpyridine]
[1]
  flavor note: fruity

## c1ccc(CCCc2ccccn2)cc1 [2-(3-phenylpropyl)pyridine]
[2]
  Description: Mouthfeel: Mouthfeel: sweet,
  Description: Taste: Taste: brown, fatty,
[2]; scale of 0 to 10, 0 = no Kokumi/Umami effect, 10 = very intense effect
  Kokumi/Umami taste intensity: 7

## CCCCCCCc1cccnc1 [3-heptylpyridine]
[1]
  flavor note: fatty, metallic and fishy
